{"source": "patent US20220409620A1", "about": "“REDUCING IMMUNOGENICITY TO PEGLOTICASE” (Horizon Pharma Rheumatology LLC, priority 2016, published 2022)", "tested_on": "adult patients with uncontrolled gout", "test": "Health Assessment Questionnaire (HAQ-DI, HAQ pain, HAQ health), open-label study", "type": "in vivo, human", "design": "key to HAQ-Health, Observed, Median / HAQ-Health, Change from Baseline, Median: 0-100 scale; 0 = very well, 100 = very poor health; key to HAQ-DI, Observed, Median / HAQ-DI, Change from Baseline, Median: HAQ-DI scale 0-3; 0 = no difficulty, 3 = unable to do", "settings": "mITT Population", "description": "Quality-of-Life Assessment: The HAQ was administered at the Screening and Week −4 or week −6 (prior to the first dose of MTX) Visits during the MTX Run-in Period for the open-label and randomized studies, respectively; prior to pegloticase infusion at the Day 1 and Weeks 14, 24 and 36 Visits or at the Day 1 and weeks 6, 14, 20, 24, 30, 36, and 44 visits during the Pegloticase+IMM Period for the open-label and randomized studies, respectively; at the End of Pegloticase Infusions Visit (if applicable), the Week 52/End of Study/Early Termination Visit and the Post Treatment Periods 3 and 6 Month Follow-up Visits (open-label study). The HAQ-DI is a self-report functional status instrument that can be filled out by a subject in less than 5 minutes and requires 1 minute to score. The index measures disability over the past week by asking a total of 20 questions covering 8 domains of function: dressing and grooming, arising, eating, walking, hygiene, reach, grip, and usual activities. There are at least 2 questions in each domain and the 8 domains represent a comprehensive set of functional activities. The HAQ-DI is calculated by scoring the answer to each question in the HAQ from 0 to 3, with 0 representing the ability to do without any difficulty, and 3 representing inability to do. Any activity that requires assistance from another individual or requires the use of an assistive device raises a 0 or 1 score to a 2. The highest score for each of the 8 domains is summed (range from 0 to 24) and divided by 8 to yield, on a scale with 25 possible values, a Functional Disability Index with a range from 0 to 3. The disability index is based on the number of domains answered and is computed only if the subject completes answers to at least 6 domains. The HAQ pain scale asks subjects to record how much pain they have had in the past week on a scale of 0 to 100, where zero represents “no pain” and 100 represents “severe pain”. The HAQ health scale is a measure of overall health. Subjects are asked to rate how well they are doing on a score of 0 to 100, where zero represents “very well” and 100 represents “very poor” health.", "key": {"[1]": {"settings": "Week 52/ET, Methotrexate Baseline"}, "[2]": {"settings": "Week 52/ET, Pegloticase Baseline"}}, "data": [{"substance": "pegloticase", "values": [{"measurement": "HAQ-Health, Observed, Mean (SD)", "setting": "Week 14, Pegloticase Baseline", "value": "36.6 (33.87)"}, {"measurement": "HAQ-Health, Observed, Median", "setting": "Week 14, Pegloticase Baseline", "value": 16.5}, {"measurement": "HAQ-Pain, Change from Baseline, Mean (SD)", "setting": "Week 14, Pegloticase Baseline", "value": "−16.0 (30.65)"}, {"measurement": "HAQ-Pain, Change from Baseline, Median", "setting": "Week 14, Pegloticase Baseline", "value": "−12.5"}, {"measurement": "HAQ-Pain, Observed, Mean (SD)", "setting": "Week 14, Pegloticase Baseline", "value": "27.1 (26.25)"}, {"measurement": "HAQ-Pain, Observed, Median", "setting": "Week 14, Pegloticase Baseline", "value": 15.0}, {"measurement": "HAQ-DI, Change from Baseline, Mean (SD)", "setting": "Week 24, Methotrexate Baseline", "value": "−0.5 (0.74)"}, {"measurement": "HAQ-DI, Change from Baseline, Median", "setting": "Week 24, Methotrexate Baseline", "value": "−0.1"}, {"measurement": "HAQ-DI, Observed, Mean (SD)", "setting": "Week 24, Methotrexate Baseline", "value": "0.2 (0.33)"}, {"measurement": "HAQ-DI, Observed, Median", "setting": "Week 24, Methotrexate Baseline", "value": 0.1}, {"measurement": "HAQ-Health, Change from Baseline, Mean (SD)", "setting": "Week 24, Methotrexate Baseline", "value": "−33.2 (36.01)"}, {"measurement": "HAQ-Health, Change from Baseline, Median", "setting": "Week 24, Methotrexate Baseline", "value": "−40.0"}, {"measurement": "HAQ-Health, Observed, Mean (SD)", "setting": "Week 24, Methotrexate Baseline", "value": "21.4 (26.65)"}, {"measurement": "HAQ-Health, Observed, Median", "setting": "Week 24, Methotrexate Baseline", "value": 10.0}, {"measurement": "HAQ-Pain, Change from Baseline, Mean (SD)", "setting": "Week 24, Methotrexate Baseline", "value": "−19.2 (35.13)"}, {"measurement": "HAQ-Pain, Change from Baseline, Median", "setting": "Week 24, Methotrexate Baseline", "value": "−10.0"}, {"measurement": "HAQ-Pain, Observed, Mean (SD)", "setting": "Week 24, Methotrexate Baseline", "value": "25.4 (27.50)"}, {"measurement": "HAQ-Pain, Observed, Median", "setting": "Week 24, Methotrexate Baseline", "value": 20.0}, {"measurement": "HAQ-DI, Change from Baseline, Mean (SD)", "setting": "Week 24, Pegloticase Baseline", "value": "−0.6 (0.85)"}, {"measurement": "HAQ-DI, Change from Baseline, Median", "setting": "Week 24, Pegloticase Baseline", "value": "−0.1"}, {"measurement": "HAQ-DI, Observed, Mean (SD)", "setting": "Week 24, Pegloticase Baseline", "value": "0.2 (0.33)"}, {"measurement": "HAQ-DI, Observed, Median", "setting": "Week 24, Pegloticase Baseline", "value": 0.1}, {"measurement": "HAQ-Health, Change from Baseline, Mean (SD)", "setting": "Week 24, Pegloticase Baseline", "value": "−19.7 (43.38)"}, {"measurement": "HAQ-Health, Change from Baseline, Median", "setting": "Week 24, Pegloticase Baseline", "value": "−10.0"}, {"measurement": "HAQ-Health, Observed, Mean (SD)", "setting": "Week 24, Pegloticase Baseline", "value": "21.4 (26.65)"}, {"measurement": "HAQ-Health, Observed, Median", "setting": "Week 24, Pegloticase Baseline", "value": 10.0}, {"measurement": "HAQ-Pain, Change from Baseline, Mean (SD)", "setting": "Week 24, Pegloticase Baseline", "value": "−16.7 (38.53)"}, {"measurement": "HAQ-Pain, Change from Baseline, Median", "setting": "Week 24, Pegloticase Baseline", "value": "−10.0"}, {"measurement": "HAQ-Pain, Observed, Mean (SD)", "setting": "Week 24, Pegloticase Baseline", "value": "25.4 (27.50)"}, {"measurement": "HAQ-Pain, Observed, Median", "setting": "Week 24, Pegloticase Baseline", "value": 20.0}, {"measurement": "HAQ-DI, Change from Baseline, Mean (SD)", "setting": "Week 36, Methotrexate Baseline", "value": "−0.5 (0.80)"}, {"measurement": "HAQ-DI, Change from Baseline, Median", "setting": "Week 36, Methotrexate Baseline", "value": 0.0}, {"measurement": "HAQ-DI, Observed, Mean (SD)", "setting": "Week 36, Methotrexate Baseline", "value": "0.3 (0.49)"}, {"measurement": "HAQ-DI, Observed, Median", "setting": "Week 36, Methotrexate Baseline", "value": 0.1}, {"measurement": "HAQ-Health, Change from Baseline, Mean (SD)", "setting": "Week 36, Methotrexate Baseline", "value": "−27.7 (42.59)"}, {"measurement": "HAQ-Health, Change from Baseline, Median", "setting": "Week 36, Methotrexate Baseline", "value": "−10.0"}, {"measurement": "HAQ-Health, Observed, Mean (SD)", "setting": "Week 36, Methotrexate Baseline", "value": "27.3 (35.18)"}, {"measurement": "HAQ-Health, Observed, Median", "setting": "Week 36, Methotrexate Baseline", "value": 10.0}, {"measurement": "HAQ-Pain, Change from Baseline, Mean (SD)", "setting": "Week 36, Methotrexate Baseline", "value": "−22.9 (28.41)"}, {"measurement": "HAQ-Pain, Change from Baseline, Median", "setting": "Week 36, Methotrexate Baseline", "value": "−20.0"}, {"measurement": "HAQ-Pain, Observed, Mean (SD)", "setting": "Week 36, Methotrexate Baseline", "value": "21.0 (27.60)"}, {"measurement": "HAQ-Pain, Observed, Median", "setting": "Week 36, Methotrexate Baseline", "value": 10.0}, {"measurement": "HAQ-DI, Change from Baseline, Mean (SD)", "setting": "Week 36, Pegloticase Baseline", "value": "−0.5 (0.86)"}, {"measurement": "HAQ-DI, Change from Baseline, Median", "setting": "Week 36, Pegloticase Baseline", "value": "−0.1"}, {"measurement": "HAQ-DI, Observed, Mean (SD)", "setting": "Week 36, Pegloticase Baseline", "value": "0.3 (0.49)"}, {"measurement": "HAQ-DI, Observed, Median", "setting": "Week 36, Pegloticase Baseline", "value": 0.1}, {"measurement": "HAQ-Health, Change from Baseline, Mean (SD)", "setting": "Week 36, Pegloticase Baseline", "value": "−16.2 (50.72)"}, {"measurement": "HAQ-Health, Change from Baseline, Median", "setting": "Week 36, Pegloticase Baseline", "value": "−10.0"}, {"measurement": "HAQ-Health, Observed, Mean (SD)", "setting": "Week 36, Pegloticase Baseline", "value": "27.3 (35.18)"}, {"measurement": "HAQ-Health, Observed, Median", "setting": "Week 36, Pegloticase Baseline", "value": 10.0}, {"measurement": "HAQ-Pain, Change from Baseline, Mean (SD)", "setting": "Week 36, Pegloticase Baseline", "value": "−19.9 (20.25)"}, {"measurement": "HAQ-Pain, Change from Baseline, Median", "setting": "Week 36, Pegloticase Baseline", "value": "−20.0"}, {"measurement": "HAQ-Pain, Observed, Mean (SD)", "setting": "Week 36, Pegloticase Baseline", "value": "21.0 (27.60)"}, {"measurement": "HAQ-Pain, Observed, Median", "setting": "Week 36, Pegloticase Baseline", "value": 10.0}, {"measurement": "HAQ-DI, Change from Baseline, Mean (SD)", "setting": "[1]", "value": "−0.6 (0.87)"}, {"measurement": "HAQ-DI, Change from Baseline, Median", "setting": "[1]", "value": "−0.1"}, {"measurement": "HAQ-DI, Observed, Mean (SD)", "setting": "[1]", "value": "0.4 (0.29)"}, {"measurement": "HAQ-DI, Observed, Median", "setting": "[1]", "value": 0.3}, {"measurement": "HAQ-Health, Change from Baseline, Mean (SD)", "setting": "[1]", "value": "−16.7 (59.23)"}, {"measurement": "HAQ-Health, Change from Baseline, Median", "setting": "[1]", "value": 15.0}, {"measurement": "HAQ-Health, Observed, Mean (SD)", "setting": "[1]", "value": "60.0 (48.22)"}, {"measurement": "HAQ-Health, Observed, Median", "setting": "[1]", "value": 80.0}, {"measurement": "HAQ-Pain, Change from Baseline, Mean (SD)", "setting": "[1]", "value": "−42.7 (18.04)"}, {"measurement": "HAQ-Pain, Change from Baseline, Median", "setting": "[1]", "value": "−44.0"}, {"measurement": "HAQ-Pain, Observed, Mean (SD)", "setting": "[1]", "value": "4.0 (5.20)"}, {"measurement": "HAQ-Pain, Observed, Median", "setting": "[1]", "value": 1.0}, {"measurement": "HAQ-DI, Change from Baseline, Mean (SD)", "setting": "[2]", "value": "−0.8 (1.08)"}, {"measurement": "HAQ-DI, Change from Baseline, Median", "setting": "[2]", "value": "−0.1"}, {"measurement": "HAQ-DI, Observed, Mean (SD)", "setting": "[2]", "value": "0.4 (0.29)"}, {"measurement": "HAQ-DI, Observed, Median", "setting": "[2]", "value": 0.3}, {"measurement": "HAQ-Health, Change from Baseline, Mean (SD)", "setting": "[2]", "value": "23.3 (54.85)"}, {"measurement": "HAQ-Health, Change from Baseline, Median", "setting": "[2]", "value": 5.0}, {"measurement": "HAQ-Health, Observed, Mean (SD)", "setting": "[2]", "value": "60.0 (48.22)"}, {"measurement": "HAQ-Health, Observed, Median", "setting": "[2]", "value": 80.0}, {"measurement": "HAQ-Pain, Change from Baseline, Mean (SD)", "setting": "[2]", "value": "−41.0 (25.24)"}, {"measurement": "HAQ-Pain, Change from Baseline, Median", "setting": "[2]", "value": "−29.0"}, {"measurement": "HAQ-Pain, Observed, Mean (SD)", "setting": "[2]", "value": "4.0 (5.20)"}, {"measurement": "HAQ-Pain, Observed, Median", "setting": "[2]", "value": 1.0}]}]}
